The source of these data is patent publication US20110028400A1, “SULFATED UNSATURATED DISACCHARIDIC CHONDROITIN SULFATE IN CONNECTIVE TISSUE PROTECTION AND REPAIR” (NESTEC S.A., priority 2008, published 2011).

The subject of series [1] is explants of articular cartilage. Put plainly: IL1β-induced GAG (35S) release from cultured bovine articular cartilage explants. It is filed as cell-based. The note with it: for slowing down cytokine-induced cartilage destruction in vitro: comparison among chondroitin disaccharides and higher molecular weight forms. An excerpt:
It was investigated here whether normal commercially available chondroitin sulphate and different low molecular weight forms of chondroitin sulphate including disaccharides could inhibit the degradation of aggrecan in cultured explants of articular cartilage. Explants from healthy bovine articular cartilage were put in culture and loaded with S^35. S^35 is incorporated in the glycosaminoglycan chains of the aggrecan molecules of the cartilage and its release in the media is considered as a surrogate marker of glycosaminoglycan release and aggrecan catabolism. However, explants from healthy bovine articular cartilage naturally display a very low catabolic activity which is not ideal to test the anti-catabolic activity of potential bioactives. To improve the sensitivity of the assay, the explants were cultured in presence of IL1β, a pro-inflammatory cytokine, known to act as a potent inducer of MMP and aggrecanase activities. The different low molecular weight forms of chondroitin sulphate were added to the culture media together with IL1β to see whether they can decrease the IL1β-induced aggrecan catabolism. In addition, the effects of the low molecular weight forms of chondroitin sulphate on IL1β-induced NO production were also investigated. Nitric oxide is a reactive oxygen species known to participate in the progression of osteoarthritis.
The articular cartilage explants were dissected out of the metacarpophalangeal joint of old cows (8-10 years). The skin was removed from the feet. The articulation was opened transversally. Intraarticular ligaments were transected. […] Under the hood, similar quantities of cartilage were distributed between the wells of a 24-wells plate containing 500 μl of medium (DMEM+20% FBS, 1% penicillin/streptomycin, 0.1% gentamycin) per well. […]
The following protocol is based on Campbell et al., Arch Biochem Biophys 234(1): 275-289 and Hascall V C et al., Arch Biochem Biophys 224(1): 206-223. […] After 72 hours, several washes were performed to eliminate the non-incorporated radioactivity. The explants were then treated for 72 hours, after which the supernatants were collected and the amount of radioactivity released in the medium was measured with a beta counter, as a marker of GAG catabolism. The radioactivity present in the explants was also measured and used to normalize the amount of radioactivity released into the media. The radioactivity was expressed in DPM ([…] per minute) and the GAG release is assessed by the following formula:
GAG release=radioactivity in the supernatants/(radioactivity in the supernatants+radioactivity in the explants)

Series [2] is described as follows: rat intestinal loop model, bioavailability. The series is classed as in vivo.
For series [3], the system named is explants of articular cartilage. Kind of series: IL1β-induced NO production in cultured bovine articular cartilage explants. The series is classed as cell-based. To be noted: 500 μg/ml, with 50 ng/ml IL1β, 72 hours, 4 experiments. An excerpt: It was investigated here whether normal commercially available chondroitin sulphate and different low molecular weight forms of chondroitin sulphate including disaccharides could inhibit the degradation of aggrecan in cultured explants of articular cartilage. Explants from healthy bovine articular cartilage were put in culture and loaded with S^35. S^35 is incorporated in the glycosaminoglycan chains of the aggrecan molecules of the cartilage and its release in the media is considered as a surrogate marker of glycosaminoglycan release and aggrecan catabolism. However, explants from healthy bovine articular cartilage naturally display a very low catabolic activity which is not ideal to test the anti-catabolic activity of potential bioactives. […]
The articular cartilage explants were dissected out of the metacarpophalangeal joint of old cows (8-10 years). […] Under the hood, similar quantities of cartilage were distributed between the wells of a 24-wells plate containing 500 μl of medium (DMEM+20% FBS, 1% penicillin/streptomycin, 0.1% gentamycin) per well. […]
For NO measurements a protocol based on Gilliam et al., Anal Biochem 212(2): 359-365 was used. […] After ten minutes, absorbance was measured at 538 nm. To quantify the amount of NO in the supernatants, a standard curve was prepared using sodium nitrite (0-60 μM).

The test system of series [4] is cartilage damages and proteoglycan loss. To be noted: 20 mg/kg body weight/day, 11 days before to 21 days after chymopapain injection; cited from earlier work.
A further series deals with knee OA. The note with it: cited from earlier work.
Another series relates to knee synovial fluids. The note with it: 10 days of 800 mg once a day; cited from earlier work.
Series [5] concerns proteoglycan depletion in cartilage. To be noted: 100 and 300 mg/kg body weight/day, starting 2 weeks before bradikinin injections; cited from earlier work.

Structures can show the parent of a compound that is named as a salt.

As for `CC(=O)N[C@H]1C(O)O[C@H](CO)[C@H](OS(=O)(=O)O)[C@@H]1O` (stereo partly shown) [GalNac 4S, 4 sulfated N-acetylgalactosamine], the “IL1β-induced GAG release (percentage of radioactivity release)” value in series [1] (dose range 500-50-5 μg/ml, with 50 ng/ml IL1β, 72 hours, FIG. 2) was “no effect”.
With `CC(=O)N[C@H]1C(O)O[C@H](CO)[C@H](OS(=O)(=O)O)[C@@H]1O[C@@H]1OC(C(=O)O)=C[C@H](O)[C@H]1O` (stereo partly shown) [Δdi4S, 4-sulfated unsaturated disaccharidic chondroitin sulfate], in series [1] (500 μg/ml, with 50 ng/ml IL1β, 72 hours, 4 independent experiments), the “amount of GAG released in the supernatants compared to IL1β alone” value is listed as “significantly (p<0.05) decreased”. The “slowing down cytokine-induced cartilage destruction in vitro” value in series [1] is recorded as “by far the most effective compound”. Further, the bioavailability result in series [2] is reported as “more bioavailable than regular high molecular weight chondroitin sulfate”. Moreover, in series [3], the “amount of NO in the supernatants compared to IL1β alone” value is “significantly (p<0.05) decreased”.
As to Chondroitin sulfate [CS], in series [4], the “cartilage damages and proteoglycan loss” value is “decreased cartilage damages and proteoglycan loss”. Also, the “improvement of the Lesquesne index versus diclofenac” value in the series on knee OA (400 mg of CS 3 times a day, double-blind RCT) was “slower than 50 mg of diclofenac”. The “mean and minimum joint space width and joint space surface area on X-rays” value in the series with knee OA (800 mg CS, one year double-blind placebo-controlled RCT) is “decreased significantly in the placebo group but not in the 800 mg CS group”. Moreover, the joint space narrowing result in the series on knee OA (800 mg once a day, 2-year double-blind RCT, placebo mean joint space loss 0.14 mm) is “prevented joint space narrowing”. Besides, the function versus placebo entry in the series with knee OA (1000 mg per day, one trial) is “did not improve function better than placebo”. Also, the “osteoarthritic symptoms, meta-analyses” value with knee OA (3 meta-analyses) was “superior to placebo”. Also, the “spontaneous pain and mobility versus placebo” value in the series with knee OA (6 of 7 double-blind placebo-controlled RCTs, 3 to 24 months, knee OA) is on record as “more efficient than placebo”. The “pain and mobility, dose comparison” value in the series on knee OA (800 and 1200 mg once a day) was “more effective on pain and mobility than placebo or 200 mg”. Also, in the series with knee OA (both superior to placebo), the “mobility, 1200 mg once a day versus 400 mg three times a day” value was “No statistical significant difference”. For the same molecule, in the series with knee OA (human, in vivo), the “time before patients detect a significant difference in pain and mobility” value was “at least 2 weeks”; the “time required to reach full symptom relief” value is “up to 2 months”. For the same molecule, in the series on knee OA (two 3 month-long periods in a year, 800 mg once a day), the “mobility after intermittent treatment” value is recorded as “lasting effects by improving mobility compared to placebo”. The “persistence of effects after termination of treatment” value with knee OA (versus diclofenac) was “persisted longer than diclofenac effects”. The “slowing down cytokine-induced cartilage destruction in vitro” value in series [1] is “did not have any significant effect”. Also, in the series on knee synovial fluids, the “activities of collagenase, phospholipase A2 and N-acetylglucosaminidase in knee synovial fluids” value is given as “decreasing”; the “viscosity and hyaluronate concentration in knee synovial fluids” value is “significantly increased”.
Turning to chondroitin-6 sulfate, the “proteoglycan depletion in cartilage” value in series [5] was “reduced or prevented”.
